{
  "source": "ChEMBL document CHEMBL1130331",
  "about": "“Synthesis and hepatoprotective effects of soyasapogenol B derivatives” (1997)",
  "data": [
    {"test_system": "HepG2", "assay": "Tested in vitro for hepatoprotective effect of 10 ug/ml of compound on cell growth and lesions in Hep G2 cells treated with aflatoxin B1 (10 e -5 M)", "assay_type": "functional, Homo sapiens", "units": {"Protection": "%"}, "values": [
      {"smiles": "CC1(C)C[C@@H](O)[C@]2(C)CC[C@]3(C)C(=CCC4[C@@]5(C)CC[C@H](O)[C@](C)(CO)C5CC[C@]43C)[C@@H]2C1", "note": "(stereo partly drawn)", "Protection": 14},
      {"smiles": "COC[C@]1(C)C2CC[C@]3(C)C(CC=C4[C@@H]5CC(C)(C)C[C@@H](O)[C@]5(C)CC[C@]43C)[C@@]2(C)CC[C@@H]1O", "note": "(stereo partly drawn)", "Protection": 48},
      {"smiles": "CO[C@H]1CC[C@@]2(C)C(CC[C@]3(C)C2CC=C2[C@@H]4CC(C)(C)C[C@@H](O)[C@]4(C)CC[C@]23C)[C@@]1(C)CO", "note": "(stereo partly drawn)", "Protection": 2},
      {"smiles": "CC1(C)C[C@@H](O)[C@]2(C)CC[C@]3(C)C(=CCC4[C@@]5(C)CC[C@H](O)[C@](C)(C=O)C5CC[C@]43C)[C@@H]2C1", "note": "(stereo partly drawn)", "Protection": 32},
      {"smiles": "CC(=O)OC[C@]1(C)C2CC[C@]3(C)C(CC=C4[C@@H]5CC(C)(C)C[C@@H](O)[C@]5(C)CC[C@]43C)[C@@]2(C)CC[C@@H]1O", "note": "(stereo partly drawn)", "Protection": 45},
      {"smiles": "CO[C@@H]1CC(C)(C)C[C@H]2C3=CCC4[C@@]5(C)CC[C@H](O)[C@](C)(CO)C5CC[C@@]4(C)[C@]3(C)CC[C@@]12C", "note": "(stereo partly drawn)", "Protection": 9},
      {"smiles": "CC1(C)C[C@@H](O)[C@]2(C)CC[C@]3(C)C(=CCC4[C@@]5(C)CCC[C@](C)(CO)C5CC[C@]43C)[C@@H]2C1", "note": "(stereo partly drawn)", "Protection": 0},
      {"smiles": "CC1(C)C[C@@H](O)[C@]2(C)CC[C@]3(C)C(=CCC4[C@@]5(C)CC[C@H](O)[C@](C)(C(=O)O)C5CC[C@]43C)[C@@H]2C1", "note": "(stereo partly drawn)", "Protection": 44},
      {"smiles": "CC1(C)C[C@@H](O)[C@]2(C)CC[C@]3(C)C(=CCC4[C@@]5(C)CC[C@H](O)C(C)(C)C5CC[C@]43C)[C@@H]2C1", "note": "(stereo partly drawn)", "Protection": 19},
      {"smiles": "CC1(C)CC[C@]2(C)CC[C@]3(C)C(=CCC4[C@@]5(C)CC[C@H](O)[C@](C)(CO)C5CC[C@]43C)[C@@H]2C1", "note": "(stereo partly drawn)", "Protection": 33},
      {"smiles": "CC(=O)O[C@@H]1CC(C)(C)C[C@H]2C3=CCC4[C@@]5(C)CC[C@H](O)[C@](C)(CO)C5CC[C@@]4(C)[C@]3(C)CC[C@@]12C", "note": "(stereo partly drawn)", "Protection": 11},
      {"smiles": "CC(=O)O[C@H]1CC[C@@]2(C)C(CC[C@]3(C)C2CC=C2[C@@H]4CC(C)(C)C[C@@H](O)[C@]4(C)CC[C@]23C)[C@@]1(C)CO", "note": "(stereo partly drawn)", "Protection": 0}
    ]},
    {"test_system": "HepG2", "assay": "Tested in vitro for hepatoprotective effect of 20 ug/ml of compound on cell growth and lesions in Hep G2 cells treated with aflatoxin B1 (10 e -5 M)", "assay_type": "functional, Homo sapiens", "units": {"Protection": "%"}, "values": [
      {"smiles": "CC1(C)[C@@H](O[C@H]2O[C@H](C(=O)O)[C@@H](O)[C@H](O)[C@H]2O[C@@H]2O[C@H](C(=O)O)[C@@H](O)[C@H](O)[C@H]2O)CC[C@]2(C)[C@H]3C(=O)C=C4[C@@H]5C[C@@](C)(C(=O)O)CC[C@]5(C)CC[C@@]4(C)[C@]3(C)CC[C@@H]12", "note": "[GLYCYRRHIZIN]", "Protection": 15}
    ]}
  ]
}
